Laboratory results as given in PubChem BioAssay AID248 (DTP/NCI, 2004).
“And” between values parts separate entries of the source, which are not always exact repeats. Identical values can stand only once. Toxic doses and inconclusive results are not listed. Cut-off read from the data, not from the text of the source: active = T/C of 150% or more; inactive = T/C below 125%.

Test system: L1210 leukemia ip in BDF1 mice, survival T/C
Assay: NCI In Vivo Anticancer Drug Screen. Data for tumor model L1210 Leukemia (intraperitoneal) in B6D2F1 (BDF1) mice
Conditions: endpoint: mean survival time, higher = longer survival
In short: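 Transplanted-tumor mice were given test agent; controls received vehicle only. Survival readings from the two groups were divided (treated over control).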

[1] = dose: 100.0 mg/kg/injection, schedule: Q01DX001 (ip), vehicle: Klucel (hydroxypropylcellulose) (HPC)
[2] = dose: 100.0 mg/kg/injection, schedule: Q01DX009 (ip), vehicle: Klucel (hydroxypropylcellulose) (HPC)
[3] = dose: 100.0 mg/kg/injection, schedule: Q04DX003 (ip), vehicle: Klucel (hydroxypropylcellulose) (HPC)
[4] = dose: 200.0 mg/kg/injection, schedule: Q01DX001 (ip), vehicle: Klucel (hydroxypropylcellulose) (HPC)
[5] = dose: 200.0 mg/kg/injection, schedule: Q01DX009 (ip), vehicle: Klucel (hydroxypropylcellulose) (HPC)
[6] = dose: 200.0 mg/kg/injection, schedule: Q04DX003 (ip), vehicle: Klucel (hydroxypropylcellulose) (HPC)
[7] = dose: 400.0 mg/kg/injection, schedule: Q01DX001 (ip), vehicle: Klucel (hydroxypropylcellulose) (HPC)
[8] = dose: 400.0 mg/kg/injection, schedule: Q01DX009 (ip), vehicle: Klucel (hydroxypropylcellulose) (HPC)
[9] = dose: 400.0 mg/kg/injection, schedule: Q04DX003 (ip), vehicle: Klucel (hydroxypropylcellulose) (HPC)
[10] = dose: 50.0 mg/kg/injection, schedule: Q01DX009 (ip), vehicle: saline with Tween-80
[11] = dose: 100.0 mg/kg/injection, schedule: Q01DX009 (ip), vehicle: saline with Tween-80
[12] = dose: 200.0 mg/kg/injection, schedule: Q01DX009 (ip), vehicle: saline with Tween-80
[13] = dose: 6.0 mg/kg/injection, schedule: Q01DX009 (ip), vehicle: other
[14] = dose: 12.0 mg/kg/injection, schedule: Q01DX009 (ip), vehicle: other
[15] = dose: 12.5 mg/kg/injection, schedule: Q01DX009 (ip), vehicle: saline
[16] = dose: 25.0 mg/kg/injection, schedule: Q01DX009 (ip), vehicle: saline
[17] = dose: 400.0 mg/kg/injection, schedule: Q01DX009 (ip), vehicle: saline with Tween-80
[18] = dose: 100.0 mg/kg/injection, schedule: Q04DX003 (ip), vehicle: saline with Tween-80
[19] = dose: 200.0 mg/kg/injection, schedule: Q04DX003 (ip), vehicle: saline with Tween-80
[20] = dose: 400.0 mg/kg/injection, schedule: Q04DX003 (ip), vehicle: saline with Tween-80

Measured: T/C

OCCCC1CC2C=CC1C2 (stereo not given)
inactive: dose: 75.0 mg/kg/injection, schedule: Q01DX001 (ip), vehicle: other 102 % of control | dose: 150.0 mg/kg/injection, schedule: Q01DX001 (ip), vehicle: other 94 % of control

Cc1ccc(S(=O)(=O)OCCS(C)(=O)=O)cc1
inactive: [1] 102 % of control | [2] 103 % of control | [3] 101 % of control | [4] 106 % of control | [5] 101 % of control | [6] 103 % of control | [7] 104 % of control | [8] 101 % of control | [9] 97 % of control

CCOCC(=O)CC1CCCC1
inactive: [10] 103 % of control | [11] 100 % of control | [12] 95 % of control

Fc1c(F)c(F)c(Oc2c(F)c(F)[c]([Sn]([c]3c(F)c(F)c(Oc4c(F)c(F)c(F)c(F)c4F)c(F)c3F)([c]3c(F)c(F)c(Oc4c(F)c(F)c(F)c(F)c4F)c(F)c3F)[c]3c(F)c(F)c(Oc4c(F)c(F)c(F)c(F)c4F)c(F)c3F)c(F)c2F)c(F)c1F
inactive: [2] 104 % of control | [3] 103 % of control | [5] 105 % of control | [6] 102 % of control | [8] 104 % of control | [9] 102 % of control

CC(=O)OCCc1ccc([N+](=O)[O-])cc1
inactive: dose: 100.0 mg/kg/injection, schedule: Q04DX002 (ip), vehicle: saline with Tween-80 97 % of control | dose: 200.0 mg/kg/injection, schedule: Q04DX002 (ip), vehicle: saline with Tween-80 93 % of control | dose: 400.0 mg/kg/injection, schedule: Q04DX002 (ip), vehicle: saline with Tween-80 97 % of control

CCOC(=O)c1ccc(NCc2cnc3nc(N)nc(N)c3n2)cc1
inactive: dose: 3.0 mg/kg/injection, schedule: Q01DX009 (ip), vehicle: other 106 % of control | [13] 102 % of control | [14] 98 % of control | dose: 24.0 mg/kg/injection, schedule: Q01DX009 (ip), vehicle: other 98 % of control

CC(C)(O)CC(O)(C(F)(F)F)C(F)(F)F
inactive: [13] 94 % of control | [14] 100 % of control | dose: 25.0 mg/kg/injection, schedule: Q01DX009 (ip), vehicle: other 105 % of control and 106 % of control and 86 % of control | dose: 50.0 mg/kg/injection, schedule: Q01DX009 (ip), vehicle: other 97 % of control | dose: 100.0 mg/kg/injection, schedule: Q01DX009 (ip), vehicle: other 98 % of control

CC(=O)Oc1ccc(CCN(C)C2CC3CCC2(C)C3(C)C)cc1OC(C)=O (stereo not given)
inactive: dose: 100.0 mg/kg/injection, schedule: Q01DX001 (ip), vehicle: saline 110 % of control | dose: 200.0 mg/kg/injection, schedule: Q01DX001 (ip), vehicle: saline 93 % of control | dose: 400.0 mg/kg/injection, schedule: Q01DX001 (ip), vehicle: saline 100 % of control

CCCOC(C(=O)OC1CCN(C)CC1)(c1ccccc1)c1ccccc1
inactive: [15] 98 % of control | [16] 102 % of control | dose: 50.0 mg/kg/injection, schedule: Q01DX009 (ip), vehicle: saline 94 % of control

COCn1cnc([N+](=O)[O-])c1Br
inactive: dose: 100.0 mg/kg/injection, schedule: Q01DX001 (ip), vehicle: acetone 101 % of control | [11] 96 % of control | dose: 200.0 mg/kg/injection, schedule: Q01DX001 (ip), vehicle: acetone 90 % of control | [12] 93 % of control | dose: 400.0 mg/kg/injection, schedule: Q01DX001 (ip), vehicle: acetone 100 % of control | [17] 86 % of control

ClC1=C2C=CC=CC2C(Cl)(c2ccccc2)C2=C1C(Cl)=C1C=CC=CC1C2(Cl)c1ccccc1 (stereo not given)
inactive: [1] 106 % of control | [4] 101 % of control | [7] 101 % of control

OCC1C2CCC(CC2)C1CO (stereo not given)
inactive: [15] 102 % of control | dose: 12.5 mg/kg/injection, schedule: Q04DX003 (ip), vehicle: saline with Tween-80 97 % of control | [16] 106 % of control | dose: 25.0 mg/kg/injection, schedule: Q04DX003 (ip), vehicle: saline with Tween-80 94 % of control | dose: 50.0 mg/kg/injection, schedule: Q04DX003 (ip), vehicle: saline with Tween-80 102 % of control | [18] 96 % of control | [19] 93 % of control | [20] 102 % of control

O=C1C=Cc2ccc(O)cc2C1=O
inactive: dose: 0.57 mg/kg/injection, schedule: Q01DX Z (ip), vehicle: saline 107 % of control | dose: 0.86 mg/kg/injection, schedule: Q01DX Z (ip), vehicle: saline 109 % of control | dose: 1.3 mg/kg/injection, schedule: Q01DX Z (ip), vehicle: saline 113 % of control | dose: 2.0 mg/kg/injection, schedule: Q01DX Z (ip), vehicle: saline 101 % of control and 104 % of control | dose: 3.0 mg/kg/injection, schedule: Q01DX Z (ip), vehicle: saline 89 % of control | dose: 4.5 mg/kg/injection, schedule: Q01DX Z (ip), vehicle: saline 95 % of control | dose: 6.7 mg/kg/injection, schedule: Q01DX Z (ip), vehicle: saline 101 % of control and 90 % of control | dose: 10.0 mg/kg/injection, schedule: Q01DX001 (ip), vehicle: acetone 104 % of control

O=C(O)CSCc1nc2ccccc2[nH]1
inactive: [11] 92 % of control | [18] 101 % of control | [12] 100 % of control | [19] 92 % of control | [17] 96 % of control | [20] 95 % of control

O/N=C1\CC(c2ccccc2)(c2ccccc2)c2cc(-c3ccccc3)c(-c3ccccc3)cc21
inactive: [10] 97 % of control | [11] 104 % of control | [12] 97 % of control

CC(C)c1ccc(NC(=S)NC(=O)c2ccccc2)cc1
inactive: dose: 100.0 mg/kg/injection, schedule: Q04DX002 (ip), vehicle: gum acacia 103 % of control | dose: 200.0 mg/kg/injection, schedule: Q04DX002 (ip), vehicle: gum acacia 100 % of control | dose: 400.0 mg/kg/injection, schedule: Q04DX002 (ip), vehicle: gum acacia 92 % of control
